Laboratory results published in patent publication US20230405078A1, “DETECTION AND TREATMENT OF INTESTINAL FIBROSIS” (THE REGENTS OF THE UNIVERSITY OF CALIFORNIA, priority 2020, published 2023).
Where no end group is shown, it is not given here.

Key:
[1] = test system: primary stricturing CD patient-derived colonic fibroblasts; assay: Fibrogenesis in CDSE-treated primary stricturing CD patient-derived colonic fibroblasts; assay type: cell-based, human
Experimental: Stricturing CD patient-derived primary colonic fibroblasts (CD-HIFs) were obtained from Cleveland Clinic via material transfer agreement (MTA2020-00000154) and under
Cleveland Clinic IRB directives (IRB #17-1167). Primary non-IBD patient-derived colonic fibroblasts (H6231) were purchased from Cell Biologics. All primary colonic fibroblasts were cultured in fibroblast medium (M2267, Cell Biologics). Human colonic CCD-18Co fibroblasts (ATCC) were cultured in minimal essential medium Eagle's medium (MEM) containing 10% fetal bovine serum and 1% penicillin-streptomycin 6, 20. All fibroblasts were grown to 80% confluence and then switched to serum-free media overnight for experiments.
For activation of protease-activated receptors (PARs), fibroblasts were pretreated with 0.8% DMSO, 10 μM PAR1 agonist TRAP-6 (HY-P0078, MCE), 10 μM PAR2 agonist SLIGKV-NH2 (Protease-Activated Receptor-2, amide, HY-P0283, MCE), or 0.4 μg/ml PAR2-activating protease recombinant cathepsin S (1183-CY-010, R&D Systems) for 30 minutes. For miR205-5p activation, fibroblasts were transfected with (30 picomoles/well) either control (YM00479902) or miR205-5p miRCURY LNA mimic (YM00472340) from Qiagen via Lipofectamine 3000 transfection reagent (L3000001, ThermoFisher) in Opti-MEM (#31985062, ThermoFisher) overnight. […]

[2] = test system: ERK1/2 phosphorylation; assay: Phospho-ERK1/2 ELISA in CCD-18Co fibroblasts; assay type: cell-based, human
Experimental: FIG. 27. Elafin inhibited ERK1/2 phosphorylation in intestinal fibroblasts via PAR2. (A) Serum starved CCD-18Co and primary stricturing CD patient-derived colonic fibroblasts were transiently transfected with either control siRNA or ZEB1 siRNA overnight, followed by treatment with 10 ng/ml TGF-β1 or 100 μg/ml stricturing CD patient-derived serum exosomes (CDSE) for 24 hours. (B) CCD-18Co fibroblasts were treated with DMSO, PAR1 inhibitor (SCH79797), or PAR2 inhibitor (GB88) for 2 hours. GB88 inhibited ERK1/2 phosphorylation. (C) CCD-18Co fibroblasts were pretreated with DMSO, PAR1 agonist, or PAR2 agonists for 30 minutes, followed by TGF-β1 10 ng/ml. Two hours later, elafin (1 μg/ml) and incubated for 2 hours. Elafin inhibited ERK1/2 phosphorylation, which was reversed by PAR2 agonist. […] Phospho-ERK1/2, ProCOL1A1, COL1A2, and ZEB1 protein were determined by ELISA. miR205-5p expression was determined by real-time RT-PCR. […]
FIG. 28. […] (D) Quantification of cathepsin S signals (B7-8) and control signals (A1-2 and E1-2) on the protease array using Bio-Rad Image Lab Software. […] Phospho-ERK1/2 was determined by ELISA. […] ProCOL1A1 and COL1A2 were determined by ELISA. […]

Substance | effect on elafin-mediated inhibition of collagen expression ([1]; CDSE-conditioned primary human colonic fibroblasts) | effect on elafin-mediated inhibition of ERK1/2 phosphorylation ([2]; elafin 1 μg/ml, 2 hours) | ProCOL1A1 protein expression ([1]; CDSE-treated, Elafin 1 μg/ml) | ERK1/2 phosphorylation ([2]; CCD-18Co fibroblasts)
SLIGKV-NH2 [PAR2 agonist, reference compound] | reversed | reversed | – | –
Elafin: small (6 kDa) human elastase-specific protease inhibitor and antimicrobial peptide; active form SEQ ID NO: 2 (AQEPVKGPVSTKPGSCPIILIRCAMLNPPNRCLKDTDCPGIKKCCEGSCGMACFVPQ; listed as Homo sapiens) | – | – | inhibited | inhibited
